According to patent US20080200499A1, “Selective Insecticides and/or Acaricides Based on Substituted Cyclic Dicarbonyl Compounds and Safeners” (priority 2004, published 2008):

What was measured:
Type in all cases: in vivo
[1] = tested on: Maize; assay: Greenhouse trial with safener after seed dressing (seed trays), maize; conditions: evaluation after 14 d
Description: In an agate mortar, the amount of safener and the amount of active compound required to prepare a 20 WS formulation are dissolved in acetone, and the appropriate amount of formulation without active compounds (which is actually used to prepare Gaucho 70 WS) is added. The mixture is allowed to dry until only a small amount of residual moisture can be detected. Using a spatula, the substance is carefully detached from the side of the mortar, and the substance is comminuted in the mortar until it has dried. An amount of the laboratory formulation thus prepared which is appropriate for the amount of seed to be dressed is filled into beakers of a size big enough so that, during dressing, they are at most one third filled with seed. A sufficient amount of water (depending on the properties of the seed surface) is then added. The seed is then filled into these beakers containing formulation and water and dressed on a test tube shaker with the aid of a spatula or glass rod. Once the formulation is distributed on the seed as uniformly as possible, the seed is allowed to dry in a fume hood. 3 l trays made of plastic (20×20×5 cm) are filled with sandy loam. Using a punch, the soil is firmed such that the deposition depth required for the crop in question is achieved. 20 seeds/seed tray are placed at regular intervals with the aid of a pair of tweezers impressed into the soil using the abovementioned punch. The test containers are placed in a greenhouse and, using the punch, the surface is once again firmed gently. In addition to the test substances, an untreated control is tested, too. Per variant, there are at least 2 trays. The trays are watered and covered with a film until the plants have emerged. After emergence, the trays are watered 2 times a day. Evaluation is carried out by counting the plants that have emerged and by assessing damage, (in %) over an interval of 5-14 days after sowing in comparison to the untreated control.

[2] = tested on: bird cherry-oat aphid (Rhopalosiphum padi); assay: Safener test after spraying, variant b: kill of aphids on winter barley; conditions: spray
Description: (§1) To produce a suitable preparation of active compound, 1 part by weight of active compound is mixed with the stated amounts of solvent and emulsifier, and the concentrate is diluted with tap water to the desired concentration. The desired amount of safener (in the case of mefenpyr-diethyl as WP 20) is mixed into the water used for dilution. Furthermore, 2 g of ai/l of rapeseed oil methyl ester 500 EW are added. Leaves of winter barley at the 2-leaf stage which are infested by the bird cherry-oat aphid (Rhopalosiphum padi) are treated with the desired active compound and safener concentrations using a spray boom, the water application rate being 300 l/ha. Per variant, the test is carried out at least twice. Evaluation is carried out after 7 d and/or 14 d by assessing the plant damage in %, where both the treated plant and new growth and the kill of the grain aphids in % compared to the untreated control are evaluated. 100% damage means that the plant has died, and 0% means no damage. 100% effect on the grain aphids means that all aphids have been killed; 0% means that none of the aphids have been killed.
(§2) In variant b), the active compound is applied as an SC formulation in the desired concentrations as in variant a) in a mixture with mefenpyr-diethyl WP 20 and 2 g of ai/l rapeseed oil methyl ester 500 EW. Practice and evaluation is carried out as stated in variant a).

[3] = tested on: Winter barley; assay: Safener test after spraying, variant b: plant damage
Description: as §1, §2

[4] = tested on: bird cherry-oat aphid (Rhopalosiphum padi); assay: Safener test after spraying, variant a: kill of aphids on winter barley; conditions: spray
Description: as §1

[5] = tested on: Winter barley; assay: Safener test after spraying, variant a: plant damage
Description: as §1

[6] = tested on: cotton aphid (Aphis gossypii); assay: Aphis gossypii test (spray application); conditions: cotton plants
Description: (§3) The expected activity of a given combination of two active compounds can be calculated according to S. R. Colby, Weeds 15 (1967), 20-22 as follows:
(§4) if • X is the kill rate when employing active compound A at an application rate of m g/ha or in a concentration of m ppm, • Y is the kill rate when employing active compound B at an application rate of n g/ha or in a concentration of n ppm and • E is the kill rate when using the active compounds A and B at application rates of m and n g/ha or in a concentration of m and n ppm, then
(§5) If the actual activity exceeds the calculated value, the activity of the combination is superadditive, i.e. a synergistic effect is present. In this case, the actually observed kill rate must exceed the value calculated using the above formula for the expected kill rate (E).
(§6) To prepare a suitable application solution, 1 part by weight of formulation is mixed with the appropriate amount of water and the adjuvant and the concentrate is diluted with water to the desired concentration.
Cotton plants (Gossypium herbaceum) which are heavily infested by the cotton aphid (Aphis gossypii) are sprayed to runoff point with the desired concentration of the application solution.
(§7) After the desired period of time, the kill in % is determined. 100% means that all aphids have been killed; 0% means that none of the aphids have been killed. The determined kill rates are entered in Colby's formula.

[7] = tested on: green peach-aphid (Myzus persicae); assay: Myzus persicae test (spray application); conditions: bell pepper plants
Description: as §3, §4, §5, §6
Bell pepper plants (Capsicum sativum) which are heavily infested by the green peach-aphid (Myzus persicae) are sprayed to runoff point with the desired concentration of the application solution.
as §7

[8] = tested on: grain aphids (Metopolophium dirhodum); assay: Metopolophium dirhodum test (spray application); conditions: barley plants
Description: as §3, §4, §5, §6
Barley plants (Hordeum vulgare) which are heavily infested by a grain aphids (Metopolophium dirhodum) are sprayed to runoff point with the desired concentration of the application solution.
as §7

[9] = tested on: Summer barley; assay: Greenhouse trial with safener after seed dressing (seed trays), summer barley; conditions: evaluation after 14 d
Description: (§8) In an agate mortar, the amount of safener and the amount of active compound required to prepare a 20 WS formulation are dissolved in acetone, and the appropriate amount of formulation without active compounds (which is actually used to prepare Gaucho 70 WS) is added. The mixture is allowed to dry until only a small amount of residual moisture can be detected. Using a spatula, the substance is carefully detached from the side of the mortar, and the substance is comminuted in the mortar until it has dried. An amount of the laboratory formulation thus prepared which is appropriate for the amount of seed to be dressed is filled into beakers of a size big enough so that, during dressing, they are at most one third filled with seed. A sufficient amount of water (depending on the properties of the seed surface) is then added. The seed is then filled into these beakers containing formulation and water and dressed on a test tube shaker with the aid of a spatula or glass rod. Once the formulation is distributed on the seed as uniformly as possible, the seed is allowed to dry in a fume hood.
(§9) 3 l trays made of plastic (20×20×5 cm) are filled with sandy loam. Using a punch, the soil is firmed such that the deposition depth required for the crop in question is achieved. 20 seeds/seed tray are placed at regular intervals with the aid of a pair of tweezers impressed into the soil using the abovementioned punch. The test containers are placed in a greenhouse and, using the punch, the surface is once again firmed gently. In addition to the test substances, an untreated control is tested, too. Per variant, there are at least 2 trays. The trays are watered and covered with a film until the plants have emerged. After emergence, the trays are watered 2 times a day. Evaluation is carried out by counting the plants that have emerged and by assessing damage, (in %) over an interval of 5-14 days after sowing in comparison to the untreated control.

[10] = tested on: Winter barley; assay: Greenhouse trial with safener after seed dressing (seed trays), winter barley; conditions: evaluation after 14 d
Description: as §8, §9

[11] = variant b, spray, 200 g of ai/ha
[12] = variant b, spray, 200 g of ai/ha, 14 d
[13] = variant a, spray, 200 g of ai/ha

CCOC(=O)C1=NOC(c2ccccc2)(c2ccccc2)C1 [Isoxadifen-ethyl, ethyl 4,5-dihydro-5,5-diphenyl-3-isoxazolecarboxylate]
% damage ([1]; 1 g of ai/kg of seed): 0%
plants that have emerged in % ([1]; 1 g of ai/kg of seed): 96%

COC1CCC2(CC1)NC(=O)C(Cl)(c1c(C)cc(Br)cc1C)C2=O (centres unmarked) [Example I-1-2]
Kill (%) 7 d ([2]; 8 g of ai/ha): 73%
Kill (%) 14 d ([2]; 8 g of ai/ha): 33%
Kill (%) 7 d ([2]; 40 g of ai/ha): 100%
Kill (%) 14 d ([2]; 40 g of ai/ha): 70%
Damage (%) 7 d ([3]; winter barley, in vivo): 40%
Damage to new growth (%) 7 d ([3]; winter barley, in vivo): 100%
Damage (%) 14 d ([3]; winter barley, in vivo, 14 d): 60%
Kill (%) 7 d ([4]; 40 g of ai/ha): 100%
Kill (%) 14 d ([4]; 40 g of ai/ha): 78%
Damage (%) 7 d ([5]; winter barley, in vivo): 40%
Damage to new growth (%) 7 d ([5]; winter barley, in vivo): 70%
Damage (%) 14 d ([5]; winter barley, in vivo): 50%
Damage to new growth (%) 14 d ([5]; winter barley, in vivo): 80%
Kill rate in % after 3 d ([6]; 20 ppm): 0%
Kill rate in % after 7 d ([7]; 20 ppm): 25%
Kill rate in % after 7 d ([8]; 20 ppm): 45%

Cc1cc(Cl)cc(C)c1C1(Cl)C(=O)NC2(CCOCC2)C1=O (centres unmarked) [Example I-1-1]
% damage ([1]; 2 g of ai/kg of seed): 95%
plants that have emerged in % ([1]; 2 g of ai/kg of seed): 71%
% damage ([9]; 2 g of ai/kg of seed): 100%
plants that have emerged in % ([9]; 2 g of ai/kg of seed): 0%
% damage ([10]; 2 g of ai/kg of seed): 100%
plants that have emerged in % ([10]; 2 g of ai/kg of seed): 0%
Kill rate in % after 7 d ([6]; 20 ppm): 20%

Clc1cc(Cl)nc(-c2ccccc2)n1 [Fenclorim a.i., 4,6-dichloro-2-phenylpyrimidine]
Kill rate in % after 3 d ([6]; 100 ppm): 0%
Kill rate in % after 7 d ([6]; 100 ppm): 0%
Kill rate in % after 7 d ([7]; 100 ppm): 0%

C=CCN(CC=C)C(=O)C(Cl)Cl [Dichlormid a.i., 2,2-dichloro-N,N-di-2-propenylacetamide]
Kill rate in % after 7 d ([6]; 100 ppm): 0%
Kill rate in % after 7 d ([7]; 100 ppm): 0%

CCOC(=O)C1=NN(c2ccc(Cl)cc2Cl)C(C)(C(=O)OCC)C1 (centres unmarked) [Mefenpyr-diethyl, diethyl 1-(2,4-dichlorophenyl)-4,5-dihydro-5-methyl-1H-pyrazole-3,5-dicarboxylate]
% damage ([9]; 1 g of ai/kg of seed): 0%
plants that have emerged in % ([9]; 1 g of ai/kg of seed): 75%
% damage ([10]; 1 g of ai/kg of seed): 0%
plants that have emerged in % ([10]; 1 g of ai/kg of seed): 83%
Kill (%) 7 d ([2]; 200 g of ai/ha): 0%
Kill (%) 14 d ([2]; 200 g of ai/ha): 0%
Damage (%) 7 d [3, 11]: 0%
Damage to new growth (%) 7 d [3, 11]: 0%
Damage (%) 14 d [3, 12]: 0%
Damage to new growth (%) 14 d [3, 12]: 0%
Kill (%) 7 d ([4]; 200 g of ai/ha): 0%
Kill (%) 14 d ([4]; 200 g of ai/ha): 0%
Damage (%) 7 d [5, 13]: 0%
Damage to new growth (%) 7 d [5, 13]: 0%
Damage (%) 14 d [5, 13]: 0%
Damage to new growth (%) 14 d [5, 13]: 0%

CCCCCC(C)OC(=O)COc1ccc(Cl)c2cccnc12 (centres unmarked) [Cloquintocet-mexyl a.i., 1-methylhexyl 5-chloroquinolin-8-oxyacetate]
Kill rate in % after 7 d ([8]; 100 ppm): 0%

CC1(C)OC(c2ccco2)CN1C(=O)C(Cl)Cl (centres unmarked) [Furilazole a.i., 3-dichloroacetyl-5-(2-furanyl)-2,2-dimethyloxazolidine]
Kill rate in % after 3 d ([6]; 100 ppm): 0%
Kill rate in % after 7 d ([7]; 100 ppm): 0%
Kill rate in % after 7 d ([8]; 100 ppm): 0%
